SMILES strings stand for the structures.

The assay has as its target skeletal myofibrils (myosin ATPase). The assay can be described thus: Skeletal Myofibril ATPase Assay. Type of assay: biochemical. The note with it: Table 4A. The method, then: Example 12. Skeletal Myofibril ATPase Assay
Overview: Myosin ATPase activity is assessed by using a coupled reaction system, in which ADP generated by the myosin ATPase function is coupled to the disappearance of NADH through the pyruvate kinase/lactate dehydrogenase (PK-LDH) system. ATPase activity produces ADP, which is used as a substrate for PK to produce pyruvate and regenerate ATP. The pyruvate is then used as a substrate by LDH to oxidize NADH to NAD+. The rate of the reaction is monitored through the time-dependent disappearance of NADH using absorbance at 340 nm. Inhibition of ATPase activity by the assayed compounds is indicated by a reduced rate of NADH loss, relative to vehicle-treated controls, over the experimental time window. To assess the selectivity of the assayed compounds for skeletal myofibrils, the compounds are counter-screened in cardiac myofibrils.
Materials: The following stock solutions and reagents were used in the Skeletal Myofibril ATPase Assay:
Stock Solutions of pCa buffer. Combine PIPES, CaCl2, and EGTA solutions with 70 mL of water. Adjust pH to 7.0 and bring final volume to 100 mL.
Buffer A & Buffer B. Buffers were stored on ice until use.
Skeletal Myofibril ATPase Assay Procedure: BSA, ATP, NADH, PEP, and DTT solutions were thawed at room temperature, then transferred to ice. Pellet-frozen myofibrils were transferred with approximately twice the required volume into a sufficiently large tube and capped. Myofibrils were thawed by rolling in a water bath for approximately 15 min at room temperature and cooled on ice. Buffers A and B were prepared by adjusting volumes as necessary for required number of wells and stored on ice. 0.5 μL of the compounds to be assayed were added into wells. 25 μL of Buffer A was dispensed into the wells, followed by 25 μL of Buffer B. The wells were measured for absorbance at 340 nm, using a kinetic protocol in which the wells are read every 1.5-2 min for 45 min. The slope of the data was approximated by subtracting the minimum absorbance value from the maximum value for each well. This was accomplished either in the SoftMax Pro software or in a spreadsheet program such as Excel. Using GraphPad Prism 8.0, the data was normalized by assigning a value of 100% to the 1% DMSO vehicle wells. Typically, a normalized 0% value was simply assigned to a (Max−Min) value of 0. The normalized data was fit to a Four Parameter Logistic sigmoidal equation, constraining the bottom to be 0 or greater. Compounds of Table 1, 2, and 3 were tested and results of the assay appear in Tables 4a-4c. A=IC50 is less than or equal to 10 μM; B═IC50 is greater than 10 μM and less than 100 μM; C═IC50 is greater than 100 μM.
The IC50 is the point on the concentration scale where inhibition reaches its midpoint. Higher therefore signals a need for much substance. Take `O=C(Cn1nc(-c2ccc(OC(F)F)nc2)ccc1=O)NC1CC(F)(F)C1` [Compound I-33, N-(3,3-difluorocyclobutyl)-2-(3-(6-(difluoromethoxy)pyridin-3-yl)-6-oxopyridazin-1(6H)-yl)acetamide]: the IC50 was > 100 µM.

For the compound `CC(C)(C#N)NC(=O)Cn1nc(-c2ccc(OC(F)F)nc2)ccc1=O` [Compound I-35, N-(2-cyanopropan-2-yl)-2-(3-(6-(difluoromethoxy)pyridin-3-yl)-6-oxopyridazin-1(6H)-yl)acetamide], the 50% inhibitory concentration (IC50) lay within 10 to 100 µM.

`CCNC(=O)Cn1nc(-c2ccc(NC34CC(C3)C4)nc2)ccc1=O` [Compound I-36, 2-[3-[6-([bicyclo[1.1.1]pentan-1-yl]amino)pyridin-3-yl]-6-oxo-1,6-dihydropyridazin-1-yl]-N-ethylacetamide]: the IC50 is < 10 µM.

As for `CCNC(=O)Cn1nc(-c2ccc(CC(F)(F)F)nc2)ccc1=O` [Compound I-37, N-ethyl-2-(6-oxo-3-(6-(2,2,2-trifluoroethyl)pyridin-3-yl)pyridazin-1(6H)-yl)acetamide], the IC50 was 10 to 100 µM.

`O=C(Cn1nc(-c2ccc(NC34CC(C3)C4)nc2)ccc1=O)N1CCC1` [Compound I-39, 2-(2-(azetidin-1-yl)-2-oxoethyl)-6-(6-(bicyclo[1.1.1]pentan-1-ylamino)pyridin-3-yl)pyridazin-3(2H)-one] showed an IC50 of 10 to 100 µM.

Regarding `CCNC(=O)Cn1nc(-c2ccc(N3CC(COC(F)(F)F)C3)nc2)ccc1=O` [Compound I-40, N-ethyl-2-(6-oxo-3-(6-(3-((trifluoromethoxy)methyl)azetidin-1-yl)pyridin-3-yl)pyridazin-1(6H)-yl)acetamide], the IC50 lay within 10 to 100 µM.

For the compound `CCNC(=O)Cn1nc(-c2ccc(NC34CCC(CC3)CC4)nc2)ccc1=O` [Compound I-41, 2-(3-(6-(bicyclo[2.2.2]octan-1-ylamino)pyridin-3-yl)-6-oxopyridazin-1(6H)-yl)-N-ethylacetamide], the IC50 lay in the range of 10 to 100 µM.

Compound `CCNC(=O)Cn1nc(-c2cnc(NC34CC(O)(C3)C4)nc2)ccc1=O` [Compound I-42, N-ethyl-2-(3-(2-((3-hydroxybicyclo[1.1.1]pentan-1-yl)amino)pyrimidin-5-yl)-6-oxopyridazin-1(6H)-yl)acetamide] showed an IC50 of 10 to 100 µM.

`CCNC(=O)Cn1nc(-c2ccc(N3CC4CC(C3)O4)nc2)ccc1=O` [Compound I-43, 2-(3-(6-(6-oxa-3-azabicyclo[3.1.1]heptan-3-yl)pyridin-3-yl)-6-oxopyridazin-1(6H)-yl)-N-ethylacetamide] registered a half-maximal inhibitory concentration (IC50) of 10 to 100 µM.

`CCNC(=O)Cn1nc(-c2ccc(NC3COC3)nc2)ccc1=O` [Compound I-44, N-ethyl-2-(3-(6-(oxetan-3-ylamino)pyridin-3-yl)-6-oxopyridazin-1(6H)-yl)acetamide]: the half-inhibitory concentration (IC50) is < 10 µM.

In the case of `CCNC(=O)Cn1nc(-c2ccc(NC3CCOCC3)nc2)ccc1=O` [Compound I-45, N-ethyl-2-(6-oxo-3-(6-((tetrahydro-2H-pyran-4-yl)amino)pyridin-3-yl)pyridazin-1(6H)-yl)acetamide], the IC50 is > 100 µM.

Consider `O=C(Cn1nc(-c2ccc(NC34CC(C3)C4)nc2)ccc1=O)NC12CC(C1)C2` [Compound I-46, N-(bicyclo[1.1.1]pentan-1-yl)-2-(3-(6-(bicyclo[1.1.1]pentan-1-ylamino)pyridin-3-yl)-6-oxopyridazin-1(6H)-yl)acetamide], for which the IC50 is < 10 µM.

Take `CCNC(=O)Cn1nc(-c2ccc(NC)nc2)ccc1=O` [Compound I-47, N-ethyl-2-(3-(6-(methylamino)pyridin-3-yl)-6-oxopyridazin-1(6H)-yl)acetamide]: the IC50 was < 10 µM.

With `CCNC(=O)Cn1nc(-c2ccc(N3CCCC3C(F)(F)F)nc2)ccc1=O` (stereo not drawn) [Compound I-48, N-ethyl-2-(6-oxo-3-(6-(2-(trifluoromethyl)pyrrolidin-1-yl)pyridin-3-yl)pyridazin-1(6H)-yl)acetamide], the IC50 is < 10 µM.

In turn, `CCNC(=O)Cn1nc(-c2cnc(OCCOC(F)(F)F)nc2)ccc1=O` [Compound I-49, N-ethyl-2-(6-oxo-3-(2-(2-(trifluoromethoxy)ethoxy)pyrimidin-5-yl)pyridazin-1(6H)-yl)acetamide] came in with an IC50 of 10 to 100 µM.

As for `O=C(Cn1nc(-c2cnc(NC34CC(C3)C4)nc2)ccc1=O)NC1CCC1` [Compound I-50, 2-(3-(2-(bicyclo[1.1.1]pentan-1-ylamino)pyrimidin-5-yl)-6-oxopyridazin-1(6H)-yl)-N-cyclobutylacetamide], the half-inhibitory concentration (IC50) was < 10 µM.

For the compound `O=C(Cn1nc(-c2cnc(OCC(F)(F)F)nc2)ccc1=O)NC12CC(C1)C2` [Compound I-51, N-(bicyclo[1.1.1]pentan-1-yl)-2-(6-oxo-3-(2-(2,2,2-trifluoroethoxy)pyrimidin-5-yl)pyridazin-1(6H)-yl)acetamide], the half-inhibitory concentration (IC50) was < 10 µM.

`O=C(Cn1nc(-c2ccc(NC3CCC3)nc2)ccc1=O)NC1CCC1` [Compound I-52, N-cyclobutyl-2-(3-(6-(cyclobutylamino)pyridin-3-yl)-6-oxopyridazin-1(6H)-yl)acetamide]: the IC50 was < 10 µM.

Regarding `CCNC(=O)Cn1nc(-c2ccc(NC(C)(C)C)nc2)ccc1=O` [Compound I-53, 2-(3-(6-(tert-butylamino)pyridin-3-yl)-6-oxopyridazin-1(6H)-yl)-N-ethylacetamide], the concentration for half-maximal inhibition (IC50) is < 10 µM.

Take `O=C(Cn1nc(-c2ccc(NC34CC(C3)C4)nc2)ccc1=O)NC1CCC1` [Compound I-54, 2-(3-(6-(bicyclo[1.1.1]pentan-1-ylamino)pyridin-3-yl)-6-oxopyridazin-1(6H)-yl)-N-cyclobutylacetamide]: the IC50 was < 10 µM.

`CCNC(=O)Cn1nc(-c2ccc(N3CC(OC(F)F)C3)nc2)ccc1=O` [Compound I-55, 2-(3-(6-(3-(difluoromethoxy)azetidin-1-yl)pyridin-3-yl)-6-oxopyridazin-1(6H)-yl)-N-ethylacetamide] yielded a 50% inhibitory concentration (IC50) of 10 to 100 µM.

For the compound `O=C(Cn1nc(-c2ccc(OCC(F)(F)F)nc2)ccc1=O)NC1CCC1` [Compound I-56, N-cyclobutyl-2-(6-oxo-3-(6-(2,2,2-trifluoroethoxy)pyridin-3-yl)pyridazin-1(6H)-yl)acetamide], the half-inhibitory concentration (IC50) is < 10 µM.

In the case of `CCNC(=O)Cn1nc(-c2cnc(NC34CC(F)(C3)C4)nc2)ccc1=O` [Compound I-57, N-ethyl-2-(3-(2-((3-fluorobicyclo[1.1.1]pentan-1-yl)amino)pyrimidin-5-yl)-6-oxopyridazin-1(6H)-yl)acetamide], the IC50 is < 10 µM.

Turning to `CCNC(=O)Cn1nc(-c2ccc(NC34CC(CO)(C3)C4)nc2)ccc1=O` [Compound I-58, N-ethyl-2-(3-(6-((3-(hydroxymethyl)bicyclo[1.1.1]pentan-1-yl)amino)pyridin-3-yl)-6-oxopyridazin-1(6H)-yl)acetamide], the concentration for half-maximal inhibition (IC50) lay in the range of 10 to 100 µM.

For `CCNC(=O)Cn1nc(-c2cnc(NC34CC(C3)C4)nc2)ccc1=O` [Compound I-59, 2-[3-(2-[bicyclo[1.1.1]pentan-1-ylamino]pyrimidin-5-yl)-6-oxopyridazin-1-yl]-N-ethylacetamide], the half-inhibitory concentration (IC50) was < 10 µM.

Consider `CCNC(=O)Cn1nc(-c2ccc(NC34CC(C)(C3)C4)nc2)ccc1=O` [Compound I-60, N-ethyl-2-(3-(6-((3-methylbicyclo [1.1.1]pentan-1-yl)amino)pyridin-3-yl)-6-oxopyridazin-1(6H)-yl)acetamide], for which the IC50 is < 10 µM.

Turning to `CCNC(=O)Cn1nc(-c2ccc(N(C)C3CCC3)nc2)ccc1=O` [Compound I-61, 2-(3-(6-(cyclobutyl(methyl)amino)pyridin-3-yl)-6-oxopyridazin-1(6H)-yl)-N-ethylacetamide], the IC50 is < 10 µM.

As to `CCNC(=O)Cn1nc(-c2ccc(NC3CCC3)nc2)ccc1=O` [Compound I-62, 2-(3-(6-(cyclobutylamino)pyridin-3-yl)-6-oxopyridazin-1(6H)-yl)-N-ethylacetamide], the 50% inhibitory concentration (IC50) was < 10 µM.

For `CCNC(=O)Cn1nc(-c2ccc(SC)nc2)ccc1=O` [Compound I-63, N-ethyl-2-(3-(6-(methylthio)pyridin-3-yl)-6-oxopyridazin-1(6H)-yl)acetamide], the IC50 was < 10 µM.

Consider `CCNC(=O)Cn1nc(-c2ccc(N(C)C34CC(C3)C4)nc2)ccc1=O` [Compound I-64, 2-(3-(6-(bicyclo[1.1.1]pentan-1-yl(methyl)amino)pyridin-3-yl)-6-oxopyridazin-1(6H)-yl)-N-ethylacetamide], for which the concentration for half-maximal inhibition (IC50) was < 10 µM.

Source of the values: US20230293518A1 (Edgewise Therapeutics, Inc., priority 2020, published 2023).
